From US9850283B2, “Macrocyclic inhibitors of the PD-1/PD-L1 and CD80(B7-1)/PD-L1 protein/protein interactions” (BRISTOL-MYERS SQUIBB COMPANY, priority 2013, dated 2017)
Where two headings read alike, the source gives them in different places. Positions of bridges follow the written chain, without caps; N, C: chain ends. Non-standard residues stand in square brackets, D forms with d. Residues, ends and D or L forms follow the SMILES beside them. ξ: configuration not given here. Phe(3,4,5-F3) = N[C@@H](Cc1cc(F)c(F)c(F)c1)C(=O)O; Tyr(3-Br) = N[C@@H](Cc1ccc(O)c(Br)c1)C(=O)O; Phe(3-Cl) = N[C@@H](Cc1cccc(Cl)c1)C(=O)O; Phe(4-Cl) = N[C@@H](Cc1ccc(Cl)cc1)C(=O)O; Phe(4-F) = N[C@@H](Cc1ccc(F)cc1)C(=O)O; Pro(4,4-F2) = O=C(O)[C@@H]1CC(F)(F)CN1; Pro(4R-NH2) = N[C@H]1CN[C@H](C(=O)O)C1; d(cisHyp) = O=C(O)[C@H]1C[C@@H](O)CN1; Bta = N[C@@H](Cc1csc2ccccc12)C(=O)O; Hyp = O=C(O)[C@@H]1C[C@@H](O)CN1; NMeF = CN[C@@H](Cc1ccccc1)C(=O)O; 3Pal = N[C@@H](Cc1cccnc1)C(=O)O; dNMeE = CN[C@H](CCC(=O)O)C(=O)O; NMeNle = CCCC[C@H](NC)C(=O)O; NMeA = CN[C@@H](C)C(=O)O; Orn = NCCC[C@H](N)C(=O)O; Dab = NCC[C@H](N)C(=O)O; Dap = NC[C@H](N)C(=O)O; ξC = NC(CS)C(=O)O; Sar = CNCC(=O)O

Key:
Human PD-L1/PD-1 = target: T1, Human PD-L1/PD-1 (Homo sapiens, UniProt Q9NZQ7); test: HTRF PD-1-Ig/PD-L1-His binding assay (human PD-L1); conditions: cluster symbol; read-out: HTRF IC50 cluster
T1 construct: made in house; host or cells: HEK293T
Procedure, shortened: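 The time-resolved fluorescence signal comes from Eu-cryptate anti-Ig (1 nM) and APC anti-His (20 nM) antibodies bound to a PD-1-Ig/PD-L1-His complex. Both partners lack transmembrane regions.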

[1] = target: T2, LK35.2-hPD-L1 cells / PE-labeled PD-1-Ig (Homo sapiens, UniProt Q9NZQ7); test: LK35.2-hPD-L1 cell binding high-content screening assay; assay type: cell-based; conditions: cluster symbol, read-out: CBA IC50 cluster
T2 construct: expressed in transfected cells; host or cells: LK35.2 mouse B cell line
Procedure, shortened: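 Fluorescent PD-1-Ig binding to PD-L1-expressing LK35.2 cells, imaged after washing. Conditions: 1 nM PE-PD-1-Ig, 37 °C, 1 h, RPMI with 10% fetal calf serum.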

[2] = cell binding assay, cell line not given
[3] = cell line of CBA not given (LK35.2-hPD-L1 or 293T-hPD-L1)

T1 sequence (Q9NZQ7 with tags, fused parts or gaps): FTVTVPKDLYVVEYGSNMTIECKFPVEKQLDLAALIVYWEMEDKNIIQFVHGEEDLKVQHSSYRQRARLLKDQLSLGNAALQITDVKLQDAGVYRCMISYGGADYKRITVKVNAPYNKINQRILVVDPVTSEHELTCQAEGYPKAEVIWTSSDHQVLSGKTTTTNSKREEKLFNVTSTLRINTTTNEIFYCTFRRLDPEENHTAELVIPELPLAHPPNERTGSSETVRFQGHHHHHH
T2 sequence (Q9NZQ7 19-290): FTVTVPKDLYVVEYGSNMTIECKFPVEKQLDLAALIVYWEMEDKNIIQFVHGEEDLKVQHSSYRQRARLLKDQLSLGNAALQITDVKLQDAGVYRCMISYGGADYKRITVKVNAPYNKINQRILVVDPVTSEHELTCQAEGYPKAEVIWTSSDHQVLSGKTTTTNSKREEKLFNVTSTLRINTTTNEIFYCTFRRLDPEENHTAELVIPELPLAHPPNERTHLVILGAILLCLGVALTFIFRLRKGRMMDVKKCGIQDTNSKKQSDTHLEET

Row | SMILES | IC50 (Human PD-L1/PD-1) [nM] | IC50 [1, 2] [nM] | IC50 [1, 3] [nM]
1 | CCCC[C@H]1C(=O)N(C)[C@@H](CCCC)C(=O)N[C@@H](CCCNC(=N)N)C(=O)N[C@H](C(=O)NCC(N)=O)CSCC(=O)N[C@@H](Cc2ccc(F)cc2)C(=O)N(C)[C@@H](C)C(=O)N[C@@H](CC(N)=O)C(=O)N2CCC[C@H]2C(=O)N[C@@H](Cc2cnc[nH]2)C(=O)N[C@@H](CC(C)C)C(=O)N2C[C@H](O)C[C@H]2C(=O)N[C@@H](Cc2c[nH]c3ccccc23)C(=O)N[C@@H](CO)C(=O)N[C@@H](Cc2c[nH]c3ccccc23)C(=O)N1C [Example 7047] ({CH2CO}-[Phe(4-F)][NMeA]NPHL[Hyp]WSW[NMeNle][NMeNle]RCG-NH2; thioether N-14) | 0.385 to 6.74 | 4.78 to 72.9 | 
2 | CCCC[C@H]1C(=O)N(C)CC(=O)N[C@@H](CC(=O)O)C(=O)N[C@@H](C(C)C)C(=O)N(C)[C@@H](Cc2ccccc2)C(=O)N[C@@H](Cc2ccc(O)cc2)C(=O)N(C)CC(=O)N[C@@H](Cc2c[nH]c3ccccc23)C(=O)N[C@@H](Cc2ccc(O)cc2)C(=O)N[C@@H](CC(C)C)C(=O)N[C@H](C(=O)NCC(N)=O)CSCC(=O)N[C@@H](Cc2cccc(Cl)c2)C(=O)N(C)[C@@H](Cc2ccccc2)C(=O)N1C [Example 3086] ({CH2CO}-[Phe(3-Cl)][NMeF][NMeNle][Sar]DV[NMeF]Y[Sar]WYLCG-NH2; thioether N-13) | 0.385 to 6.74 |  | 0.158 to 4.71
3 | CCCC[C@H]1C(=O)N(C)[C@@H](CCCC)C(=O)N[C@@H](CCCNC(=N)N)C(=O)NC(C(=O)N[C@@H](CO)C(N)=O)CSCC(=O)N[C@@H](Cc2ccc(O)cc2)C(=O)N(C)[C@@H](C)C(=O)N[C@@H](CC(N)=O)C(=O)N2CCC[C@H]2C(=O)N[C@@H](Cc2cnc[nH]2)C(=O)N[C@@H](CC(C)C)C(=O)N2CCC[C@H]2C(=O)N[C@@H](Cc2c[nH]c3ccccc23)C(=O)N[C@@H](CO)C(=O)N[C@@H](Cc2c[nH]c3ccccc23)C(=O)N1C (stereo partly shown) [Example 9037] ({CH2CO}-Y[NMeA]NPHLPWSW[NMeNle][NMeNle]R[ξC]S-NH2; thioether N-14) | 6.76 to 30.3 | 0.158 to 4.71 | 
4 | CCCC[C@H]1C(=O)N(C)[C@@H](CCCC)C(=O)N[C@@H](CCCNC(=N)N)C(=O)N[C@H](C(=O)NCC(N)=O)CSCC(=O)N[C@@H](Cc2cccnc2)C(=O)N(C)[C@@H](C)C(=O)N[C@@H](CC(N)=O)C(=O)N2CCC[C@H]2C(=O)N[C@@H](Cc2c[nH]cn2)C(=O)N[C@@H](CC(C)C)C(=O)N2C[C@H](O)C[C@H]2C(=O)N[C@@H](Cc2c[nH]c3ccccc23)C(=O)N[C@@H](CO)C(=O)N[C@@H](Cc2c[nH]c3ccccc23)C(=O)N1C [Example 7024] ({CH2CO}-[3Pal][NMeA]NPHL[Hyp]WSW[NMeNle][NMeNle]RCG-NH2; thioether N-14) | 6.76 to 30.3 | 4.78 to 72.9 | 
5 | CCCC[C@H]1C(=O)N(C)[C@@H](CCCC)C(=O)N[C@@H](CCCNC(=N)N)C(=O)N[C@H](C(=O)NCC(N)=O)CSCC(=O)N[C@@H](Cc2ccc(O)cc2)C(=O)N(C)[C@@H](C)C(=O)N[C@@H](CC(N)=O)C(=O)N2CCC[C@H]2C(=O)N[C@@H](Cc2cnc[nH]2)C(=O)N[C@@H](CC(C)C)C(=O)N2CC(F)(F)C[C@H]2C(=O)N[C@@H](Cc2c[nH]c3ccccc23)C(=O)N[C@@H](CO)C(=O)N[C@@H](Cc2csc3ccccc23)C(=O)N1C [Example 1036] ({CH2CO}-Y[NMeA]NPHL[Pro(4,4-F2)]WS[Bta][NMeNle][NMeNle]RCG-NH2; thioether N-14) | 6.76 to 30.3 |  | 0.158 to 4.71
6 | CCCC[C@H]1C(=O)N(C)[C@@H](CCCC)C(=O)N[C@@H](CCN)C(=O)N[C@H](C(=O)NCC(N)=O)CSCC(=O)N[C@@H](Cc2ccc(O)c(Br)c2)C(=O)N(C)[C@@H](C)C(=O)N[C@@H](CC(N)=O)C(=O)N2CCC[C@H]2C(=O)N[C@@H](Cc2cnc[nH]2)C(=O)N[C@@H](CC(C)C)C(=O)N2C[C@H](O)C[C@H]2C(=O)N[C@@H](Cc2c[nH]c3ccccc23)C(=O)N[C@@H](CCN)C(=O)N[C@@H](Cc2c[nH]c3ccccc23)C(=O)N1C [Example 6036] ({CH2CO}-[Tyr(3-Br)][NMeA]NPHL[Hyp]W[Dab]W[NMeNle][NMeNle][Dab]CG-NH2; thioether N-14) | 0.385 to 6.74 | 0.158 to 4.71 | 
7 | CCCC[C@H]1C(=O)N(C)CC(=O)N[C@@H](CC(=O)O)C(=O)N[C@@H](C(C)C)C(=O)N[C@@H](Cc2ccc(Cl)cc2)C(=O)N[C@@H](Cc2ccc(O)cc2)C(=O)N(C)CC(=O)N[C@@H](Cc2c[nH]c3ccccc23)C(=O)N[C@@H](Cc2ccc(O)cc2)C(=O)N[C@@H](CC(C)C)C(=O)N[C@H](C(=O)NCC(N)=O)CSCC(=O)N[C@@H](Cc2ccccc2)C(=O)N(C)[C@@H](Cc2ccccc2)C(=O)N1C [Example 3145] ({CH2CO}-F[NMeF][NMeNle][Sar]DV[Phe(4-Cl)]Y[Sar]WYLCG-NH2; thioether N-13) | > 30.5 |  | > 74.3
8 | CCCC[C@H]1C(=O)N2C[C@H](O)C[C@@H]2C(=O)N2C[C@H](N)C[C@H]2C(=O)N[C@@H](C(C)C)C(=O)N(C)[C@@H](Cc2ccccc2)C(=O)N[C@@H](Cc2ccc(O)cc2)C(=O)N(C)[C@H](CCC(=O)O)C(=O)N[C@@H](Cc2c[nH]c3ccccc23)C(=O)N[C@@H](Cc2ccc(O)cc2)C(=O)N[C@@H](CC(C)C)C(=O)N[C@H](C(=O)NCC(N)=O)CSCC(=O)N[C@@H](Cc2cc(F)c(F)c(F)c2)C(=O)N(C)[C@@H](Cc2ccccc2)C(=O)N1C [Example 3197] ({CH2CO}-[Phe(3,4,5-F3)][NMeF][NMeNle][d(cisHyp)][Pro(4R-NH2)]V[NMeF]Y[dNMeE]WYLCG-NH2; thioether N-13) | 0.385 to 6.74 |  | 0.158 to 4.71
9 | CCCC[C@H]1C(=O)N2C[C@H](O)C[C@@H]2C(=O)N[C@@H](CC(=O)O)C(=O)N[C@@H](C(C)C)C(=O)N(C)[C@@H](Cc2ccccc2)C(=O)N[C@@H](Cc2ccc(O)cc2)C(=O)N(C)CC(=O)N[C@@H](Cc2c[nH]c3ccccc23)C(=O)N[C@@H](Cc2ccc(O)cc2)C(=O)N[C@@H](CC(C)C)C(=O)N[C@H](C(=O)NCC(N)=O)CSCC(=O)N[C@@H](Cc2ccccc2)C(=O)N(C)[C@@H](Cc2ccccc2)C(=O)N1C [Example 3575] ({CH2CO}-F[NMeF][NMeNle][d(cisHyp)]DV[NMeF]Y[Sar]WYLCG-NH2; thioether N-13) | 0.385 to 6.74 | 0.158 to 4.71 | 
10 | CCCC[C@H]1C(=O)N(C)[C@@H](CCCC)C(=O)N[C@@H](CCCN)C(=O)N[C@H](C(=O)NCC(N)=O)CSCC(=O)N[C@@H](Cc2ccc(O)cc2)C(=O)N(C)[C@@H](C)C(=O)N[C@@H](CC(N)=O)C(=O)N2CCC[C@H]2C(=O)N[C@@H](CN)C(=O)N[C@@H](CC(C)C)C(=O)N2C[C@H](O)C[C@H]2C(=O)N[C@@H](Cc2c[nH]c3ccccc23)C(=O)N[C@@H](CO)C(=O)N[C@@H](Cc2csc3ccccc23)C(=O)N1C [Example 1139] ({CH2CO}-Y[NMeA]NP[Dap]L[Hyp]WS[Bta][NMeNle][NMeNle][Orn]CG-NH2; thioether N-14) | 0.385 to 6.74 |  | 0.158 to 4.71
11 | CCCC[C@H]1C(=O)N(C)CC(=O)N[C@@H](CC(=O)O)C(=O)N[C@@H](C(C)C)C(=O)N(C)[C@@H](Cc2ccc(O)cc2)C(=O)N[C@@H](Cc2ccc(O)cc2)C(=O)N(C)CC(=O)N[C@@H](Cc2c[nH]c3ccccc23)C(=O)N[C@@H](Cc2ccc(O)cc2)C(=O)N[C@@H](CC(C)C)C(=O)N[C@H](C(=O)NCC(N)=O)CSCC(=O)N[C@@H](Cc2ccccc2)C(=O)N(C)[C@@H](Cc2ccccc2)C(=O)N1C [Example 3168] (HELM PEPTIDE1{[O=C(C[*:3])[*:2]].F.[meF].[CCCC[C@@H](C(=O)[*:2])N(C)[*:1]].[Sar].D.V.[meY].Y.[Sar].W.Y.L.C.G.[am]}$PEPTIDE1,PEPTIDE1,1:R3-14:R3$$$V2.0) | > 30.5 |  | > 74.3
12 | CCCC[C@H]1C(=O)N(C)[C@@H](CCCC)C(=O)N[C@@H](CCN)C(=O)N[C@H](C(=O)NCC(N)=O)CSCC(=O)N[C@@H](Cc2ccc(O)cc2)C(=O)N(C)[C@@H](C)C(=O)N[C@@H](CCN)C(=O)N2CCC[C@H]2C(=O)N[C@@H](Cc2c[nH]cn2)C(=O)N[C@@H](CCC(=O)O)C(=O)N2C[C@H](O)C[C@H]2C(=O)N[C@@H](Cc2c[nH]c3ccccc23)C(=O)N[C@@H](C(C)C)C(=O)N[C@@H](Cc2c[nH]c3ccccc23)C(=O)N1C [Example 5091] ({CH2CO}-Y[NMeA][Dab]PHE[Hyp]WVW[NMeNle][NMeNle][Dab]CG-NH2; thioether N-14) | 6.76 to 30.3 | 4.78 to 72.9 | 
13 | CCCC[C@H]1C(=O)N(C)[C@@H](CCCC)C(=O)N[C@@H](CCCNC(=N)N)C(=O)N[C@H](C(=O)NCC(N)=O)CSCC(=O)N[C@@H](Cc2ccc(O)cc2)C(=O)N(C)[C@@H](C)C(=O)N[C@@H](CCC(=O)O)C(=O)N2CCC[C@H]2C(=O)N[C@@H](Cc2cnc[nH]2)C(=O)N[C@@H](CC(C)C)C(=O)N2CCC[C@H]2C(=O)N[C@@H](Cc2c[nH]c3ccccc23)C(=O)N[C@@H](CO)C(=O)N[C@@H](Cc2c[nH]c3ccccc23)C(=O)N1C [Example 1167] ({CH2CO}-Y[NMeA]EPHLPWSW[NMeNle][NMeNle]RCG-NH2; thioether N-14) | 0.385 to 6.74 |  | 0.158 to 4.71
14 | CCCC[C@H]1C(=O)N(C)[C@@H](CCCC)C(=O)N[C@@H](CCCNC(=N)N)C(=O)NC(C(=O)NCC(N)=O)CSCC(=O)N[C@@H](Cc2ccc(O)cc2)C(=O)N(C)[C@@H](C)C(=O)N[C@@H](CC(N)=O)C(=O)N2CCC[C@H]2C(=O)N[C@@H](CC(N)=O)C(=O)N[C@@H](CC(C)C)C(=O)N2C[C@H](O)C[C@H]2C(=O)N[C@@H](Cc2c[nH]c3ccccc23)C(=O)N[C@@H](CO)C(=O)N[C@@H](Cc2c[nH]c3ccccc23)C(=O)N1C (stereo partly shown) [Example 9061] ({CH2CO}-Y[NMeA]NPNL[Hyp]WSW[NMeNle][NMeNle]R[ξC]G-NH2; thioether N-14) | 0.385 to 6.74 | 0.158 to 4.71 | 
